From patent US7105529B2, “Substituted oxindole derivatives as protein tyrosine and as protein serine/threonine kinase inhibitors and compositions and methods of treating chemotherapy and radiation therapy side effects” (SmithKline Beecham Corporation, priority 1997, dated 2006)

Assays:
CDK2 = CDK2 (Homo sapiens, UniProt P24941); experiment: CDK2 substrate phosphorylation assay; assay type: biochemical
[1] = system: RKO colon adenocarcinoma cells; experiment: FACS assay (cell death), RKO; assay type: cell-based; conditions: Homo sapiens; 50% cell death, 72 h
Procedure: (§1) These assays allow determination of both cell death and changes in cell cycle profile in cells following treatment of the compound. The assay is performend as follows: • 1. Cells are incubated in DMEM to which 10% FCS has been added in a humidified incubator at 37° C. and 5% by volume of CO2 in air. The cells are innoculated in 6-well plates at a density of 0.5–5×10^5 cells per well. • 2. The test compound is added in serial dilutions 24–36 h after plating in 0.5% DMSO. The plates are then incubated a further 72 h in the presence of the compound. During this time, cells in control cultures undergo at least three cell divisions. • 3. After incubation, the media is collected and cells are harvested by trypsinization. The cells and media are pooled and pelleted by centrifugation. • 4. The cell pellet is fixed in a final volume of 3 mL of 50% ice cold MeOH and incubated for a minimum of 30 min at −20° C. • 5. The cells are pelleted by centrifugation and resuspended in 0.5 mL PBS containing 1%FCS, […] Propidium Iodide (PI) and […] RNase A and incubated 30 min at 37° C. in the dark. • 6. The samples are analysed by flow cytometry using the relative incorporation of PI as a measure of DNA content of each cell. The % Dead cells is recorded as % of events with less than 2N DNA. […] HDF are normal diploid fibroblast cells. […]

cSrc = cSrc (Homo sapiens, UniProt P12931); experiment: Src kinase assay (ELISA or isotope format); assay type: biochemical
cSrc, sequence (P12931 whole entry): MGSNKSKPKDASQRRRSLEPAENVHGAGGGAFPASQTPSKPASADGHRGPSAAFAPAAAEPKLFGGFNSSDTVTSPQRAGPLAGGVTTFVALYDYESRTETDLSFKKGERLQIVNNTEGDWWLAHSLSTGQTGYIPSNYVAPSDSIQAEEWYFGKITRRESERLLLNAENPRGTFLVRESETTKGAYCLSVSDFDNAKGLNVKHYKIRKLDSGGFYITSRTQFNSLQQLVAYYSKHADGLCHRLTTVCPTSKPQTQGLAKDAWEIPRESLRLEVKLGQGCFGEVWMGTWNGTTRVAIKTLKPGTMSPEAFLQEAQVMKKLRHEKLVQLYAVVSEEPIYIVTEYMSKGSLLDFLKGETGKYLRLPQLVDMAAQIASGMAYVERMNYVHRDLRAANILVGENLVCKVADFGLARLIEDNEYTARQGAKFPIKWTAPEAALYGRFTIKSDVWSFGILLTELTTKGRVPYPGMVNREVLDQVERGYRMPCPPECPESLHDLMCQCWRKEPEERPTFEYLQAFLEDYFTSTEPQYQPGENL
Procedure: The peptide substrates used in Src and Lck assays were biotin-aminohexyl-EEIYGEF-NH2 (Src) and biotin-aminohexyl-[…]-NH2 (Lck). The src and Ick proteins were purified to homogeneity from a baculovirus expression system and preactivated before adding to assay mixtures. The maximum activation was achieved by incubating concentrated enzyme ([…]) on ice for 40 min in the presence of 1 mM ATP and 10 mM MgCl2 in 100 mM HEPES, pH 7.5. The activated enzyme was diluted to 2 nM into a […] reaction mixture containing 100 mM HEPES, pH 7.5, 5 mM ATP, 10 mM MgCl2, 2 mM peptide, 0.05 mg/mL BSA, and an inhibitor at varying concentrations and with or without 8 mCi/mL [γ-^33P]ATP dependent upon the method of analysis for the extent of reaction. The controls were reactions in the presence (negative controls) or absence (positive controls) of 50 mM EDTA. Reactions were allowed to proceed for 30 min at room temperature and quenched with addition of EDTA to 50 mM in […]. The extent of reactions was analyzed in one of the two ways: an Elisa-based and a radioactive isotope-based. The quenched samples ([…]) were transferred to a neutravidin coated plate (Perice) and incubated at room temperature for 40 min to allow biotinylated peptide to bind to neutravidin. […] The plate was read at A625 in a plate reader. […] The plate was sealed and counted in a micro-b-counter (Wallac). […]

Lck = Lck (Homo sapiens, UniProt P06239); experiment: Lck kinase assay (ELISA or isotope format); assay type: biochemical
Lck, sequence (P06239 whole entry): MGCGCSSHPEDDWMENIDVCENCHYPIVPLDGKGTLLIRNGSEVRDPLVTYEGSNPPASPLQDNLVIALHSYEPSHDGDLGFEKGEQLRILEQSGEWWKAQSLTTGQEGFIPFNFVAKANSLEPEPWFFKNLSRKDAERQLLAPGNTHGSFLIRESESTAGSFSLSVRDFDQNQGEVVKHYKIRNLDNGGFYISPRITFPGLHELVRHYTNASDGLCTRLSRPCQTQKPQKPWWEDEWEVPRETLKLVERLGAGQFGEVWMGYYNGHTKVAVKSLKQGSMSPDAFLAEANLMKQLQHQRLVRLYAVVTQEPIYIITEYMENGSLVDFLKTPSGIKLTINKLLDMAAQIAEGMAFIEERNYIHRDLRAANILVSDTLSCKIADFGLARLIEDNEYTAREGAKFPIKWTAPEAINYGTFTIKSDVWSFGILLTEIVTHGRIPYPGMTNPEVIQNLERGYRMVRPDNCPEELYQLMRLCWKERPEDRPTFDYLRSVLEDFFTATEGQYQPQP

UL97 = biological target: T1, UL97 (Human cytomegalovirus, UniProt P16788); experiment: UL97 protein kinase assay (32P transfer to histone H2B); assay type: biochemical
T1 construct: GST; made in house; host or cells: sf9 cells (baculovirus vector)
T1 sequence (P16788 whole entry): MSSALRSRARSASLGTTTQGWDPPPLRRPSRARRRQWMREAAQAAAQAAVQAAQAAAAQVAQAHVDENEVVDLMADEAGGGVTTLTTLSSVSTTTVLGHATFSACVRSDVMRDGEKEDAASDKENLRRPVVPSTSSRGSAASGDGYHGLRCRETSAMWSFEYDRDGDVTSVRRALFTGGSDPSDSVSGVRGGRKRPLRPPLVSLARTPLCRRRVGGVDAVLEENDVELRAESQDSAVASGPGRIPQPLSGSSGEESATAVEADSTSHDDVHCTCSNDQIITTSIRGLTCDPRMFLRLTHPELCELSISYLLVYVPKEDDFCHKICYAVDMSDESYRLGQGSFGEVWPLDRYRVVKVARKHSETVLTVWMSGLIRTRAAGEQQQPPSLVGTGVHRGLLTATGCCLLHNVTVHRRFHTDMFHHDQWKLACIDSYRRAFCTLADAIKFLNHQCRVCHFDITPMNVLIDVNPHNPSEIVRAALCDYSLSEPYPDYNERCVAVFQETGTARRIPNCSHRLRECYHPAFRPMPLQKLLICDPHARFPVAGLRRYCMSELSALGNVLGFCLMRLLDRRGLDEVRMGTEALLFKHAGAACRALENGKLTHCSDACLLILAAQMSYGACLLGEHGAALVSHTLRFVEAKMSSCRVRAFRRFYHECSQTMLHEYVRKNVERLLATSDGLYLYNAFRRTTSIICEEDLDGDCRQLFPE
Procedure: UL97 was produced as a GST fusion protein from a baculovirus vector expressed in sf9 cells as described by He (He, et al., Journal of Virology 1997, 71, 405–11). UL97 was assayed as a protein kinase using ^32P transfer from ATP to histone H2B with detection of radiolabeled histone bound to phosphocellulose. Assay mixes for testing inhibitors of UL97 activity contained 2 mM [γ^32P]-ATP, 15 mM histone H2B, 50 mM sodiumCHES, pH 9.5, 1 M NaCl, 2 mM dithiothreitol and 10 mM MgCl2. Inhibitors were dissolved in diluted DMSO to give a final DMSO concentration in the reaction of 1% DMSO. After incubation at 20° C., the reactions were terminated by addition of 10 volumes of 75 mM phosphoric acid, 30 mM ATP, 1 mM EDTA, then were spotted onto phosphocellulose filters and washed four times with 75 mM phosphoric acid. Radioactivity was determined by liquid scintillation counting.

VEGFR-2 = VEGFR-2 (Homo sapiens, UniProt P35968); experiment: VEGFR-2 kinase assay; assay type: biochemical; conditions: read-out: VEGFR2 (IC50)
VEGFR-2, sequence (P35968 834-1162 limits assumed): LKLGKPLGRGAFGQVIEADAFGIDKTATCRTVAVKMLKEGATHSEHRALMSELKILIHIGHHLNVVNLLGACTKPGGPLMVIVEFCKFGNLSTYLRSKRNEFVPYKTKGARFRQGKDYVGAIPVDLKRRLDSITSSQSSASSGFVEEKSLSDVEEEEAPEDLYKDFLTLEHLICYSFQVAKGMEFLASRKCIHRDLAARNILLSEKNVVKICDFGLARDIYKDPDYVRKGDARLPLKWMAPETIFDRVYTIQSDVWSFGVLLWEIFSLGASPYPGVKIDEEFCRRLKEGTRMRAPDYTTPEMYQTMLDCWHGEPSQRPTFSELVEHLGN

MES/SA cells = experiment: FACS assay (cell death), MES/SA; assay type: cell-based; conditions: Homo sapiens, 50% cell death, 72 h
Procedure: as §1

Row | IC50 (CDK2) | Structure (SMILES) | IC50 [1] | IC50 (cSrc) | IC50 (Lck) | IC50 (UL97) | IC50 (VEGFR-2) | IC50 (MES/SA cells)
1 | 1 to 10 nM | COC(=O)c1ccc2c(c1)/C(=C/Nc1ccc(S(N)(=O)=O)cc1)C(=O)N2 [Example 27] | 1.1 to 5 µM | – | – | – | – | –
2 | – | NS(=O)(=O)c1ccc(NN=C2C(=O)Nc3ccc(-c4cnco4)cc32)cc1 [Example 36] | – | > 100 nM | > 100 nM | 11 to 50 nM | > 100 nM | 100 to 500 nM
